Test results: patent publication US20070219159A1, “CYCLODEXTRIN COMPOSITIONS AND METHODS OF TREATING VIRAL INFECTIONS” (priority 2002, published 2007)
≈ marks a conversion by molar mass, not a printed value. Read-outs that look alike come from different tables or passages of the source.

Experiments:
[1] = test system: dlsptk (an ACV-resistant, tk deletion mutant of HSV-1); format: cell-based; conditions: MOI 10
HSV-1 strain KOS1.1 = test: CPE reduction assay in Vero cells, HSV-1; format: cell-based
HSV-2 strain MS = test: CPE reduction assay in Vero cells, HSV-2; format: cell-based
HSV-1 = HSV-1 plaque formation / IC50 study in Vero cells; format: cell-based; conditions: for Plaques ± Std. Dev.: HSV-1 plaques per well, 48 hours
Vero cells [2] = test: Cell viability by LDH release assay; format: cell-based; conditions: 48 hours
Protocol: FIG. 3 depicts the effects of ACV alone (400 μg/ml) and β-CD alone (8 mg/ml) on the viability of Vero cells as monitored by the LDH release assay after 24 hours of treatments (A); and after 48 hours of treatments (B). All data represents means+SD of two separate experiments.
Cell viability assay. Cell viability was determined fluorometrically by estimating the release of LDH into the media (Moran and Schnellman, 1996). LDH activity was based on the reduction of pyruvate to lactate. The concomitant oxidation of NADH results in a decrease in the fluorescence emission at 450 nm with excitation wavelength 355 nm, and the rate of disappearance of NADH is indicative of LDH activity.
To study the effects of formulations on viability of preformed monolayers, 3 to 4×10^6 Vero cells were added to 1× MEM-5% FBS in T75 flasks. […] Used media were replaced with 15 ml of treatment media, containing 5× MEM-FBS diluted to 1× with water (control), acyclovir stock (400 μg/ml), or β-CD stock (8 mg/ml in water). […]
Reaction solution was made fresh for each experiment by mixing 0.4 ml of 16.2 mM pyruvate with 10 ml of 0.2 mM NADH in phosphate buffer (pH 7.5). […] The amount of LDH calculated for either condition was then compared with and expressed as a percentage of the total LDH present.
Used media were replaced with 15 ml/flask or 2.5 ml/well of treatment media, containing 5× MEM-FBS diluted to 1× with water (control), and […]CD stock. […] Live cells are distinguished by the presence of intracellular esterase activity, as determined by the enzymatic conversion of calcein-AM (nonfluorescent) to calcein (green fluorescence). EthD-1 enters cells with damaged cell membranes and binds to nucleic acids producing red fluorescence to identify dead cells. […] For LDH assays, cells were trypsinized, resuspended in fresh 1× medium, kept at 37° C.-5% CO2 atmosphere, and total LDH present in cells and medium was determined after lysing the cells with 350 μM digitonin. The amount of LDH calculated for either condition was then compared with and expressed as a percentage of the total LDH present. […]

Vero cells [3] = conditions: 48 hours
d27-lacZ1 (β-gal HSV) = test: Semi-quantitative PCR of intracellular HSV DNA (HSV entry); conditions: MOI 0.01 or 0.1, β-CD 7.2 mg/ml pre-, 5.4 mg/ml post-infection, versus untreated infected cells
[4] = Human alphaherpesvirus 1, Vero, read-out: % of control ± SEM

OC[C@H]1O[C@@H]2O[C@H]3[C@H](O)[C@@H](O)[C@@H](O[C@H]4[C@H](O)[C@@H](O)[C@@H](O[C@H]5[C@H](O)[C@@H](O)[C@@H](O[C@H]6[C@H](O)[C@@H](O)[C@@H](O[C@H]7[C@H](O)[C@@H](O)[C@@H](O[C@H]8[C@H](O)[C@@H](O)[C@@H](O[C@H]1[C@H](O)[C@H]2O)O[C@@H]8CO)O[C@@H]7CO)O[C@@H]6CO)O[C@@H]5CO)O[C@@H]4CO)O[C@@H]3CO [BCD, β-cyclodextrin]
reduction of ACV-resistant virus yield ([1]; 6.4 mg/ml BCD, 24 hours): approximately 10^3 PFU
effect on yield of acyclovir-resistant dlsptk virus (FIG. 2) ([1]; 20 μM (4.5 μg/ml) ACV or 6.4 mg/ml β-CD for 24 hours): lowered the yield
protection of Vero cells by inhibition of viral CPE (HSV-1 strain KOS1.1; HSV-1, MOI 0.001 and 0.1, BCD 7-8 mg/ml): almost complete protection
inhibition of infection, direct microscopy and crystal violet staining (HSV-1 strain KOS1.1; HSV-1, MOI 2.0 (data not shown)): inhibited infection
anti-herpes effects at high multiplicity of infection (HSV-1 strain KOS1.1; HSV-1, MOI >50, BCD 7-8 mg/ml): exhibited anti-herpes effects
anti-HSV activity compared with acyclovir (HSV-1 strain KOS1.1; β-CD 7.2 mg/ml): comparable to acyclovir in the range of 200 to 400 μg/ml
protection of Vero cells by inhibition of viral CPE (HSV-2 strain MS; HSV-2, MOI 0.001 and 0.1, BCD 7-8 mg/ml): almost complete protection
inhibition of infection, direct microscopy and crystal violet staining (HSV-2 strain MS; HSV-2, MOI 2.0): inhibited infection
anti-herpes effects at high multiplicity of infection (HSV-2 strain MS; HSV-2, MOI >50, BCD 7-8 mg/ml): exhibited anti-herpes effects
Plaques ± Std. Dev. (HSV-1; BCD 3.5 mg/ml): 119.0 ± 1.0
Plaques ± Std. Dev. (HSV-1; BCD 4.0 mg/ml): 111.0 ± 6.6
Plaques ± Std. Dev. (HSV-1; BCD 4.5 mg/ml): 84.0 ± 10.53
Plaques ± Std. Dev. (HSV-1; BCD 5.0 mg/ml): 74.67 ± 4.51
Plaques ± Std. Dev. (HSV-1; BCD 5.5 mg/ml): 54.67 ± 5.68
Plaques ± Std. Dev. (HSV-1; BCD 6.0 mg/ml): <10
IC50 (HSV-1; Human alphaherpesvirus 1, Vero, 48 h): 5100 µg/mL (≈ 4.49 mM)
activity at 3500 µg/mL (HSV-1; [4]): 85.2 ± 0.58%
activity at 4000 µg/mL (HSV-1; [4]): 79.5 ± 3.8%
activity at 4500 µg/mL (HSV-1; [4]): 60.1 ± 6.08%
activity at 5000 µg/mL (HSV-1; [4]): 53.5 ± 2.6%
activity at 5500 µg/mL (HSV-1; [4]): 39.1 ± 3.28%
cell viability (LDH assay) (Vero cells [2]; 8.0 mg/ml BCD): 68.57%
decrease in cell viability (Vero cells [2]; β-CD 8 mg/ml, Vero cells): 30-40%
cell viability (normalized to control cells) (Vero cells [3]; 5.5 mg/ml BCD): 91.23%
cell viability (normalized to control cells) (Vero cells [3]; 7.2 mg/ml BCD): 84.89%
cytotoxicity (Vero cells [3]; maximum concentration of BCD): < 15%
amount of intracellular viral DNA / viral entry (d27-lacZ1 (β-gal HSV)): did not significantly alter viral entry
amount of intracellular viral DNA / viral entry (d27-lacZ1 (β-gal HSV); listed as β-CD): No significant differences
